Common to all, as to assay type: functional
For experiment [1], the system named is Human immunodeficiency virus 1. Briefly: Antiviral activity against HIV1 harboring integrase N155H mutant infected in human TZM-bl cells assessed as beta-galactosidase expression after 48 hrs by microplate luminometry relative to HIV1 R7/3 expressing wild type integrase enzyme relative to HIV1 R7/3 expressing wild type integrase enzyme.
For experiment [2], the system named is Human immunodeficiency virus 1. Briefly: Antiviral activity against HIV1 F-15 harboring integrase D10E, K42T, A124N, T125A, V126L, M154L, V201I, T206S, N232D, V281S mutant gene infected in human TZM-bl cells assessed as beta-galactosidase expression after 48 hrs by microplate luminometry relative to HIV1 R7/3 expressing wild type integrase enzyme.
In experiment [3] the test system is Human immunodeficiency virus 1. Briefly: Antiviral activity against HIV1 harboring integrase T97A mutant infected in human TZM-bl cells assessed as beta-galactosidase expression after 48 hrs by microplate luminometry relative to HIV1 R7/3 expressing wild type integrase enzyme relative to HIV1 R7/3 expressing wild type integrase enzyme.
The subject of experiment [4] is Human immunodeficiency virus 1. Briefly: Antiviral activity against HIV1 R-6 harboring integrase D10E, E11D, S17N, A23V, L28I, P30A, V72I, L101I, S119T, T122I, A124T, V201I, N222D, N232D, S230G, D253E, N254G mutant gene infected in human TZM-bl cells assessed as beta-galactosidase expression after 48 hrs by microplate luminometry relative to HIV1 R7/3 expressing wild type integrase enzyme.

For experiment [5], the system named is Human immunodeficiency virus 1. Briefly: Antiviral activity against HIV1 G-8 harboring integrase D10E, L101I, S119T, A124T, M154L, V201I, N232D, S283G mutant gene infected in human TZM-bl cells assessed as beta-galactosidase expression after 48 hrs by microplate luminometry relative to HIV1 R7/3 expressing wild type integrase enzyme.
For experiment [6], the system named is Human immunodeficiency virus 1. As to the kind of experiment: Antiviral activity against HIV1 R-31 harboring integrase D10E, E11D, V32I, V37I, V72I, L101I, T112I, A124N, T125A, K173R, A205S, Q216H, N222K, S230N, N232D mutant gene infected in human TZM-bl cells assessed as beta-galactosidase expression after 48 hrs by microplate luminometry relative to HIV1 R7/3 expressing wild type integrase enzyme.

The subject of experiment [7] is Human immunodeficiency virus 1. Briefly: Antiviral activity against HIV1 K-2 harboring integrase D10E, R20K, I113V, A124T, K188R, V201I, T206S, N232D, D278G mutant gene infected in human TZM-bl cells assessed as beta-galactosidase expression after 48 hrs by microplate luminometry relative to HIV1 R7/3 expressing wild type integrase enzyme.
Experiment [8] concerns Human immunodeficiency virus 1. Briefly: Antiviral activity against HIV1 B-28 harboring integrase D10E, R20K, S39C, V72I, A124N, T125V, V201I, N232D mutant gene infected in human TZM-bl cells assessed as beta-galactosidase expression after 48 hrs by microplate luminometry relative to HIV1 R7/3 expressing wild type integrase enzyme.
In experiment [9] the test system is Human immunodeficiency virus 1. Briefly: Antiviral activity against HIV1 G-4 harboring integrase K7R, D10E, S39C, L74I, K156R, K215N, T218I, N232D, L234I mutant gene infected in human TZM-bl cells assessed as beta-galactosidase expression after 48 hrs by microplate luminometry relative to HIV1 R7/3 expressing wild type integrase enzyme.
In experiment [10] the test system is Human immunodeficiency virus 1. As to the kind of experiment: Antiviral activity against HIV1 N-19 harboring integrase D10E, E11D, D25E, V31I, I113V, S119G, A124N, V151I, V201I, N232D mutant gene infected in human TZM-bl cells assessed as beta-galactosidase expression after 48 hrs by microplate luminometry relative to HIV1 R7/3 expressing wild type integrase enzyme.

Experiment [11] relates to Human immunodeficiency virus 1. Briefly: Antiviral activity against HIV1 A-6 harboring integrase D10E, V72I, A124T, M154I, R199K, V201I, N232D mutant gene infected in human TZM-bl cells assessed as beta-galactosidase expression after 48 hrs by microplate luminometry relative to HIV1 R7/3 expressing wild type integrase enzyme.
In experiment [12] the test system is Human immunodeficiency virus 1. Briefly: Antiviral activity against HIV1 B-27 harboring integrase D10E, R20K, S39C, V72I, A124N, T125M, V201I, N232D mutant gene infected in human TZM-bl cells assessed as beta-galactosidase expression after 48 hrs by microplate luminometry relative to HIV1 R7/3 expressing wild type integrase enzyme.

As to `CN(C)C(=O)C(=O)NC(C)(C)c1nc(C(=O)NCc2ccc(F)cc2)c(O)c(=O)n1C`, the “Ratio EC50” value in experiment [1] worked out at 0.78; in experiment [2], 0.329; in experiment [3] it was 2; in [4], 0.644; in experiment [5], 0.286; in experiment [6] it was 1.005. The “Ratio EC50” value came to 0.394 in experiment [7]; 0.766 in experiment [8]; 0.847 in experiment [9]; 0.998 in experiment [10]; 0.946 in experiment [11]; 0.592 in experiment [12].
Consider `CN(C)C(=O)C(=O)N(C)c1nc(C(=O)NCc2ccc(F)cc2)c(O)c2ncccc12`, for which the “Ratio EC50” value in experiment [1] is recorded as 2.692; in experiment [2], 0.33; in experiment [3] it was 3.767; in [4], 0.412; in [5], 0.515; in [6], 1.589. Further, the “Ratio EC50” value is given as 0.461 in experiment [7]; 0.673 in experiment [8]; 0.643 in [9]; 0.927 in experiment [10]; 0.836 in experiment [11]; 0.966 in [12].
For the compound `CNC(=O)c1cc(F)ccc1CNC(=O)c1nc(N2CCCCS2(=O)=O)c2cccnc2c1O`, the “Ratio EC50” value in [1] is given as 4.295; in [2], 0.656; in [3] it was 0.865; in experiment [4], 1.067; in experiment [5] it was 0.425; in [6], 0.995. The “Ratio EC50” value in experiment [7] is given as 0.448; in [8] it was 0.767; in experiment [9], 0.565; in experiment [10], 0.456; in experiment [11] it was 0.5; in [12], 0.627.
With `O=C(NCc1ccc(F)cc1)c1nc(N2CCCCS2(=O)=O)c2cccnc2c1O`, the “Ratio EC50” value turned out to be 12.647 in experiment [1]; 0.505 in [2]; 6.067 in experiment [3]; 1.175 in experiment [4]; 0.488 in experiment [5]; 1.268 in [6]. Besides, the “Ratio EC50” value is listed as 0.468 in [7]; 0.973 in [8]; 1.3 in experiment [9]; 1.416 in experiment [10]; 0.863 in experiment [11]; 1.306 in experiment [12].

The record behind these values is ChEMBL document CHEMBL1649238, “Natural polymorphisms of human immunodeficiency virus type 1 integrase and inherent susceptibilities to a panel of integrase inhibitors” (2009).
